This is an account of results in patent US20060111305A1, “Metabolites of certain [1,4]diazepino[6,7,1-ij]quinoline derivatives and methods of preparation and use thereof” (Wyeth, priority 2004, published 2006).

Where a name gives a salt, the structure may show the parent alone. Read-outs that look alike come from different tables or passages of the source. Marks after values point to notes of the source that are not given here.

Common to all, as to type: in vivo, Sprague-Dawley rats
Data set [1] is described as follows: Rat urinary excretion and metabolite profiles after single oral 5 mg/kg [14C]DCDQ. Particulars: oral 5 mg/kg, mean n = 3. As for the experimental part:
(§1) At sacrifice, blood samples were collected by cardiac puncture into tubes containing EDTA as the anticoagulant and placing them on ice. Aliquots of 50 μL were removed for combustion and determination of radioactivity content. Plasma was immediately obtained from the remaining blood by centrifugation at 4° C. Brains were excised after perfusion with 50 mL of chilled sterile saline. Urine samples were collected on dry ice at intervals of 0-8 and 8-24 hour post-dosing. Feces were collected at intervals of 0-8 and 8-24 hr post-dosing at room temperature and were homogenized as described previously. The biological specimens and aliquots of the dosing solution at pre- and post-dose were stored at approximately −70° C. until analyzed.
Plasma (20 μL) and urine (50 μL) aliquots were analyzed for radioactivity concentrations. Radioactivity determinations of dose, plasma and urine were made with a Tri-Carb Model 3100 TR/LL liquid scintillation counter (LSC) (Perkin Elmer) using 10 mL of Ultima Gold as the scintillation fluid.
Urine was analyzed for radioactivity concentration as and analyzed for metabolite profiles by direct injection onto the HPLC column. LC/MS analyses for metabolite identification were also carried out with urine samples.
(§2) A Waters model 2690 HPLC system (Waters Corp., Milford, Mass.) with a built-in autosampler was used for analysis. Separations were accomplished on a Phenomenex Luna C18(2) column (150×2.0 mm, 5 μm) (Phenomenex, Torrance, Calif.). The sample chamber of the autosampler was maintained at 4° C., while the column was at ambient temperature of about 20° C. A variable wavelength UV detector set to monitor 250 nm and a Flo-One β Model A525 radioactivity detector described above were used for data acquisition. The HPLC mobile phase consisted of 10 mM ammonium acetate, pH 4.5 (A) and methanol (B), and was delivered at 0.2 mL/min. Chromatographic condition A was used for dose analysis, while condition B was used for analysis of urine and plasma, brain and fecal extracts.

Data set [2] can be described thus: Metabolites of DCDQ identified in rats by LC/MS analysis (Table 18). The settings on record: P = plasma, U = urine, B = brain, F = feces. As to the method:
An Agilent Model 1100 HPLC system (Agilent Technologies, Wilmington, Del.) including an autosampler and diode array UV detector was used for LC/MS analysis of plasma and urine samples. The UV detector was set to monitor 200 to 400 nm. For selected LC/MS analyses, radiochromatograms were acquired using a β-Ram model 3 radioactivity flow detector (IN/US Systems Inc., Tampa, Fla.) equipped with a solid scintillant flow cell. Fecal samples were also analyzed using a Waters Alliance model 2690 HPLC system. It was equipped with a built-in autosampler and a model 996 diode array UV detector set to 210-350 nm. The HPLC flow was split between a Radiomatic model 150TR flow scintillation analyzer (Perkin Elmer) and the mass spectrometer. Other HPLC conditions were the same as condition B described above.
The mass spectrometer used for metabolite characterization for plasma and urine was a Micromass Q-TOF-2 quadrupole time-of-flight hybrid mass spectrometer (Waters). The mass spectrometer was equipped with an electrospray ionization (ESI) interface and operated in the positive ionization mode. Collision energy settings of 5 and 30 eV were used for full MS and MS/MS scans, respectively. Settings for the mass spectrometer are listed below.
A Micromass Quattro Micro mass spectrometer (Waters) was also used to analyze the fecal samples. It was equipped with an electrospray ionization (ESI) interface and operated in the positive ionization mode. Settings for the mass spectrometer are listed below.
LC/MS/MS in the selected reaction-monitoring (SRM) mode (LC/SRM) was conducted with the triple quadruple mass spectrometer to monitor DCDQ and its metabolites in fecal samples. The transitions monitored are listed below.

Data set [3] in a line: Rat plasma metabolite profiles after single oral 5 mg/kg [14C]DCDQ. The settings on record: for concentration at 2 h / concentration at 8 h / concentration at 4 h: Sprague-Dawley, rat, plasma, mean n = 3, read-out: Estimated plasma concentration in rats; for Chromatographic distribution of radioactivity in rat plasma / Estimated plasma concentration in rats: mean n = 3. As to the method:
Plasma samples were analyzed for metabolite profiles by HPLC. Aliquots of 1.5 mL plasma were mixed with 3.0 mL methanol, placed on ice for about 10 minutes, and then centrifuged. The supernatant was transferred to a clean tube. The protein pellets were extracted once with 3.0 mL methanol. The supernatants from precipitation and extraction of each sample were pooled, mixed, and evaporated at 22° C. under nitrogen in a Zymark TurboVap LV (Caliper Life Sciences, Hopkinton, Mass.) to about 0.3 mL. The concentrated extract was centrifuged, the supernatant volume measured and extraction efficiency was determined by analyzing duplicate 10 μL aliquots for radioactivity. An aliquot of the supernatant (50-200 μL) was analyzed by HPLC with radioactivity flow detection. Plasma extracts were also analyzed by LC/MS.
as §2

Data set [4] in a line: Rat fecal excretion and metabolite profiles after single oral 5 mg/kg [14C]DCDQ. The settings on record: male rats, 8-24 hour fecal extracts. As for the experimental part: as §1
Brain and fecal samples were weighed and homogenized in water at volume-to-weight ratios of about 1:1 and 5:1, respectively. Blood aliquots (50 μL), brain homogenates (0.1 gram) and fecal homogenates (0.2 gram) were placed on Combusto-cones with Combusto-pads and combusted. A model 307 Tri-Carb Sample Oxidizer, equipped with an Oximate-80 Robotic Automatic Sampler (Perkin Elmer), was used for combustion. The liberated ^14CO2 was trapped with Carbo-Sorb E carbon dioxide absorber, mixed with PermaFluor® E+ liquid scintillation cocktail, and counted in a Tri-Carb Model 3100 TR/LL liquid scintillation counter (Perkin Elmer). The oxidation efficiency of the oxidizer was 98.2%.
Fecal homogenates were analyzed for metabolite profiles. Aliquots of 1 gram of fecal homogenates were mixed with 2 mL methanol, placed on ice for about 10 minutes and centrifuged. The supernatant was transferred to a clean tube. The residue was extracted three times with 2 mL of a water:methanol (3:7) mixture. The supernatants of each sample were combined, evaporated to about 1 mL, and centrifuged. Extraction efficiency was determined by analyzing aliquots of 10 μL of the supernatant for radioactivity. An aliquot (50-200 μL) of the supernatant was analyzed by HPLC with radioactivity flow detection for profiling. Samples were also analyzed by LC/MS to characterize the radioactive peaks.
as §2, with “Chromatographic condition A was used for dose analysis, while condition B was used for analysis of urine and plasma, brain and fecal extracts.” left out

On to `OC1CNCc2cccc3c2N1C[C@@H]1CCC[C@H]31` (stereo partly drawn) [Metabolite M10, hydroxy DCDQ], for which the “Chromatographic distribution of radioactivity in male rat urine” value was 3.32% in data set [1] (0-8 hr) and 2.70% in data set [1] (8-24 hr). Besides, the “Percentage of dose for urinary metabolites in rats” value is on record as 1.08% in data set [1] (0-8 hr), 1.99% in data set [1] (0-24 hr) and 0.91% in data set [1] (8-24 hr). Further, the Matrix result in data set [2] is “U, B, F”. For the same molecule, the concentration at 2 h was 35.2 ng/mL in data set [3] (female, 2 hr) and 23.7 ng/mL in data set [3] (male, 2 hr). The concentration at 8 h in data set [3] (female, 8 hr) was 18.9 ng/mL; in data set [3] (male, 8 hr), 13.2 ng/mL. Besides, the concentration at 4 h in data set [3] (male, 4 hr) was 9.81 ng/mL. For the same molecule, the “Chromatographic distribution of radioactivity in rat plasma” value in data set [3] (female, 2 hr) was determined as 5.2%; in data set [3] (female, 8 hr) it was 5.6%; in data set [3] (male, 2 hr), 3.6%; in data set [3] (male, 4 hr), 1.5%; in data set [3] (male, 8 hr) it was 3.0%.
For the molecule `CC(=O)N1Cc2cccc3c2N(C[C@@H]2CCC[C@H]32)C(O)C1` (stereo partly drawn) [Metabolite M11, acetylated hydroxy DCDQ], the “relative abundance in fecal extracts” value in data set [4] is on record as “major metabolites”. Besides, the Matrix entry in data set [2] is recorded as “P, B, F”. Further, the concentration at 2 h was 41 ng/mL in data set [3] (female, 2 hr) and 37.2 ng/mL in data set [3] (male, 2 hr). In addition, the concentration at 8 h was 16.6 ng/mL in data set [3] (female, 8 hr) and 16.3 ng/mL in data set [3] (male, 8 hr). For the same molecule, the concentration at 4 h in data set [3] (male, 4 hr) was 34.5 ng/mL. In addition, the “Chromatographic distribution of radioactivity in rat plasma” value in data set [3] (female, 2 hr) is given as 6.1%; in data set [3] (female, 8 hr), 4.9%; in data set [3] (male, 2 hr) it was 6.0%; in data set [3] (male, 4 hr), 5.2%; in data set [3] (male, 8 hr) it was 3.6%.
With `O=S(=O)(O)N1CCN2C[C@@H]3CCC[C@@H]3c3cccc(c32)C1` [Metabolite M12, DCDQ sulfamate], the Matrix entry in data set [2] is “P, U”. Also, the concentration at 2 h in data set [3] (female, 2 hr) is 33.8 ng/mL. For the same molecule, in data set [3] (female, 8 hr), the concentration at 8 h was 11.8 ng/mL. Besides, the “Chromatographic distribution of radioactivity in rat plasma” value is 5.2^e % in data set [3] (female, 2 hr); 3.3% in data set [3] (female, 8 hr); “BQL^c” in data set [3] (male, 2 hr); “BQL” in data set [3] (male, 4 hr); “BQL” in data set [3] (male, 8 hr). The “Estimated plasma concentration in rats” value in data set [3] (male, 2 hr) was “BQL^c”; in data set [3] (male, 4 hr) it was “BQL”; in data set [3] (male, 8 hr), “BQL”.
Consider `O=S(=O)(O)OC1CC[C@@H]2c3cccc4c3N(CCNC4)CC12` (stereo partly drawn) [Metabolite M13, 17-hydroxy DCDQ sulfate], for which the concentration at 2 h in data set [3] (female, 2 hr) was 16.6 ng/mL; in data set [3] (male, 2 hr) it was 11.6 ng/mL. Also, the concentration at 8 h in data set [3] (female, 8 hr) is 5.62 ng/mL; in data set [3] (male, 8 hr), 6.33 ng/mL. For the same molecule, the concentration at 4 h in data set [3] (male, 4 hr) was 14.2 ng/mL. In addition, the “Chromatographic distribution of radioactivity in rat plasma” value is reported as 2.6% in data set [3] (female, 2 hr); 1.6% in data set [3] (female, 8 hr); 1.9% in data set [3] (male, 2 hr); 2.2% in data set [3] (male, 4 hr); 1.4% in data set [3] (male, 8 hr).
Regarding `O=S(=O)(O)N1CCN2CC3=CCC=C3c3cccc(c32)C1` [Metabolite M14, di-dehydro DCDQ sulfamate], the Matrix entry in data set [2] is on record as “P, U”. Further, the concentration at 2 h in data set [3] (female, 2 hr) was 25.1 ng/mL. For the same molecule, in data set [3] (female, 8 hr), the concentration at 8 h was 16.5 ng/mL. In addition, the “Chromatographic distribution of radioactivity in rat plasma” value is given as 4.0^d % in data set [3] (female, 2 hr); 4.9^d % in data set [3] (female, 8 hr); “BQL” in data set [3] (male, 2 hr); “BQL” in data set [3] (male, 4 hr); “BQL” in data set [3] (male, 8 hr). The “Estimated plasma concentration in rats” value in data set [3] (male, 2 hr) is on record as “BQL”; in data set [3] (male, 4 hr), “BQL)”; in data set [3] (male, 8 hr) it was “BQL”.
